Data from patent US7514068B2, “Biphenyl-pyrazolecarboxamide compounds” (Concert Pharmaceuticals Inc., priority 2005, dated 2009).
Like-named read-outs stand apart in the source and are kept apart here.

Key:
[1] = RIO-North American trial, cited from earlier work
[2] = rat liver microsome assays; cited from earlier work
[3] = RIO-North American Phase III clinical trial, adverse-event associated discontinuations; format: in vivo, human; settings: 20 mg dose
From the text: In reports of these clinical trials Compound 1 was described as having a good safety profile with relatively low increases in serious adverse events across the different dose groups tested. However, it is clearly less well tolerated in higher doses, with the more common side effects including depression, anxiety, and irritability, and in some but not all studies, significant amounts of nausea. Even in a highly motivated Phase III clinical trial population, a considerable number of dose-dependent discontinuations occurred.

[4] = test system: rats; settings: cited from earlier work
[5] = test system: CB1 vs. CB2 receptor; settings: in vitro receptor binding studies; cited from earlier work
[6] = test system: animal models; settings: cited from earlier work
[7] = test system: wide range of other neurological receptors; settings: in vitro receptor binding studies; cited from earlier work

Row | Structure (SMILES) | first year adverse-event associated discontinuations ([1]; 5 mg dose) [%] | first year adverse-event associated discontinuations ([1]; 20 mg dose) [%] | sites of metabolism [2] | increase of adverse-event associated discontinuations versus placebo [3] [%] | in vivo effects of cannabinoid agonists (hypothermia, ring immobility, increased tail flick latency) [4] | selectivity for the CB1 vs. CB2 receptor [5] | duration of action compared with Compound 1 [6] | affinity for a wide range of other neurological receptors [7]
1 | Cc1c(C(=O)NN2CCCCC2)nn(-c2ccc(Cl)cc2Cl)c1-c1ccc(Cl)cc1 [Compound 1, N-(piperidin-1-yl)-5-(4-chlorophenyl)-1-(2,4-dichlorophenyl)-4-methyl-1H-pyrazole-3-carboxamide] | 9.4 | 12.8 | hydroxylation only on the pyrazole 3-substituent | 77 |  |  |  | 
2 | CCc1c(C(=O)NN2CCCCC2)nn(-c2ccc(Cl)cc2Cl)c1-c1ccc(Br)cc1 [Compound 1A, 5-(4-bromophenyl)-1-(2,4-dichlorophenyl)-4-ethyl-N-(1-piperidinyl)-1H-pyrazole-3-carboxamide] |  |  |  |  | reverse | highly selective | longer | little affinity
